Measured values reported in patent US20100273661A1, “Methods and Kits for Predicting Treatment Response in Type II Diabetes Mellitus Patients” (SmithKline Beecham Corporation, priority 2007, published 2010).

Experiments:
Assay type in all cases: in vivo, human
male subjects with T2DM = assay: Eight week single-blind treatment study; responder defined by composite score of glycemic-lowering efficacy (FPG, fructosamine, HbA1c); conditions: responder = composite % reduction 1(%ΔFPG)+2(%ΔFructosamine)+1.5(%ΔHbA1c) greater than 30%, 8 weeks
Description: The study described herein was relatively small-scale (75 male subjects with T2DM) and short-term (8 weeks of treatment). Serum and urine samples were obtained at pre-treatment baseline, and after 4 and 8 weeks of treatment with one of the following: placebo, rosiglitazone, metformin or glyburide. High information content nuclear magnetic resonance (NMR) and liquid chromatography/mass spectroscopy (LC/MS)-based metabolomic platforms, including polar metabolite and lipid profiling, were used to profile the serum and urine samples. A variety of multivariate analysis techniques were used to determine whether polar low molecular weight metabolites, lipids, or fatty acids, analyzed in readily accessible fluids can be used to predict drug responder status at week 8 based on their measurement at baseline or at week 4.
Male subjects aged 30 to 70 years with a documented history of stable T2DM for no more than 10 years duration were eligible for the study described herein if they had been previously treated with diet and exercise alone, monotherapy or low-dose combination therapy. Fasting plasma glucose (FPG) at screening could not exceed 225 mg/dL for subjects treated with diet and exercise alone or 180 mg/dL for subjects receiving monotherapy or low-dose combination therapy. HbA1c was required to be within 5.7 to 10.0% with the following conditions; subjects with HbA1c between 5.7 and 9% must have been diabetic for less than 5 years and treated with mono or low dose combination therapy and have a FBG of 125 to 180 mg/dL, and subjects with HbA1c between 9.1 and 10.0% must not have been treated with combination therapy. In addition, body mass index must have been within the range of 25 to 37.5 kg/m^2, for subjects aged […] years, or 25 to 35.0 kg/m^2 for subjects aged 56 to 70 years. […]
Originally, efficacy response was defined as a FPG decrease of greater than 30 mg/dl. […] Fructosamine, whose half-life is determined by that of albumin, provides a measure of integrated glucose over a period of 2-4 weeks. […]

urine citrate = assay: Urine citrate measured by NMR at week 0 and week 8 in rosiglitazone responders and non-responders; conditions: week 8 vs week 0
Experimental: FIGS. 4A-4C show the measure of selected biomarkers in urine or serum.
Male subjects aged 30 to 70 years with a documented history of stable T2DM for no more than 10 years duration were eligible for the study described herein if they had been previously treated with diet and exercise alone, monotherapy or low-dose combination therapy. Fasting plasma glucose (FPG) at screening could not exceed 225 mg/dL for subjects treated with diet and exercise alone or 180 mg/dL for subjects receiving monotherapy or low-dose combination therapy. […]
Serum and urine samples were analyzed using various metabolomic platforms and with traditional serum biomarker (“non-omic”) measurements. Both urine and serum were measured by nuclear magnetic resonance (NMR)-based metabolic profiling. Serum samples were also analyzed by liquid chromatograph (LC)/mass spectrometry (MS) for polar metabolites and lipids, and gas chromatograph (GC)-flame ionization for fatty acids (lipidomics). […]
Citrate may play a critical role in cataplerosis (the export of mitochondrial intermediates into the cytosol and in the induction of fatty acid-derived signaling molecules) and glucose-regulated insulin release [Flamez, D. et al., Diabetes 51, 2018-2024 (2002)]. Because citrate was not quantified in plasma or liver, it is hard to pinpoint the actual biochemical context for the change in this metabolite. […]

[1] = system: inflammation associated with obesity and diabetes; assay: Apparent inflammation observed in the study under rosiglitazone treatment; conditions: observed in this study and also reported in the literature
Description: Serum IL-8 at baseline was higher in responders than non-responders (p=0.032) (FIG. 4C). IL-8 is an important cytokine in the inflammatory process. It is stimulated by high glucose concentrations in endothelial cells in vitro and has chemotactic activity for polymorphonuclear neutrophils (playing an important role in the pathogenesis of chronic complications of diabetes), as well as for T-lymphocyte and smooth muscle cells. Serum IL-8 level was reported to markedly increase in diabetic patients [Zozulinska, D., et al., Diabetologia 42, 117-118 (1999)]. […] Thus, it seems consistent that subjects with higher IL-8 levels were more responsive to rosiglitazone treatment.

SMILES	Fractions of responders in each treatment after eight weeks of treatment (male subjects with T2DM)	change in level of urine citrate after 8 week treatment, non-responder subjects (urine citrate; non-responders (n=12))	change in level of urine citrate after 8 week treatment, responder group (urine citrate; responders (n=9))	effect of treatment on apparent inflammation [1]
COc1ccc(Cl)cc1C(=O)NCCc1ccc(S(=O)(=O)NC(=O)NC2CCCCC2)cc1 [Glyburide, 5-chloro-N-[2-[4-(cyclohexylcarbamoylsulfamoyl)phenyl]ethyl]-2-methoxy-benzamide]	0.60			
CN(C)C(=N)N=C(N)N [Metformin]	0.53			
CN(CCOc1ccc(CC2SC(=O)NC2=O)cc1)c1ccccn1 (stereo not drawn) [Rosiglitazone, 5-[[4-[2-(methyl-pyridin-2-yl-amino)ethoxy]phenyl]methyl]thiazolidine-2,4-dione]	0.43	did not change	did increase urine citrate (not statistically significant)	reduce apparent inflammation
